# Data published in BindingDB's records for doi:10.1016/j.bmcl.2003.09.076 (Eli Lilly, 2003).
# Legend:
# [1] = Inhibitory activity against Protease using replicon assay […] at 50 uM concentration
# [2] = Binding affinity towards Protease using PNA assay […]
# [3] = Cytotoxic activity in human liver Huh-7 cells
SMILES,IC50 [1],Ki [2],IC50 [3]
"CCCC(NC(=O)[C@@H]1[C@H]2CCC[C@H]2CN1C(=O)[C@@H](NC(=O)OC(C)C)C(C)C)C(=O)C(=O)N[C@@H](C)c1ccccc1 (stereo partly drawn) [((S)-2-Methyl-1-{(1S,3aR,6aS)-1-[1-((S)-1-phenyl-ethylaminooxalyl)-butylcarbamoyl]-hexahydro-cyclopenta[c]pyrrole-2-carbonyl}-propyl)-carbamic acid isopropyl ester]",–,1.91 µM,> 100 µM
"CCCC(NC(=O)[C@@H]1[C@H]2CCC(F)(F)[C@H]2CN1C(=O)[C@@H](NC(=O)[C@H](O)C(C)C)C(C)C)C(=O)C(=O)NC1CC1 (stereo partly drawn) [(1S,3aR,6aS)-4,4-Difluoro-2-[(S)-2-((R)-2-hydroxy-3-methyl-butyrylamino)-3-methyl-butyryl]-octahydro-cyclopenta[c]pyrrole-1-carboxylic acid (1-cyclopropylaminooxalyl-butyl)-amide]",–,16.5 µM,–
"CCCC(NC(=O)[C@@H]1[C@H]2CCC(F)(F)[C@H]2CN1C(=O)[C@@H](NC(=O)OC(C)C)C(C)C)C(=O)C(=O)N[C@@H](C)c1ccccc1 (stereo partly drawn) [((S)-1-{(1S,3aR,6aS)-4,4-Difluoro-1-[1-((S)-1-phenyl-ethylaminooxalyl)-butylcarbamoyl]-hexahydro-cyclopenta[c]pyrrole-2-carbonyl}-2-methyl-propyl)-carbamic acid isopropyl ester]",–,6.7 µM,> 100 µM
"CCCC(NC(=O)[C@@H]1[C@H]2CCC[C@H]2CN1C(=O)[C@@H](NC(=O)[C@H](O)C(C)C)C(C)C)C(=O)C(=O)NC1CC1 (stereo partly drawn) [(1S,3aR,6aS)-2-[(S)-2-((R)-2-Hydroxy-3-methyl-butyrylamino)-3-methyl-butyryl]-octahydro-cyclopenta[c]pyrrole-1-carboxylic acid (1-cyclopropylaminooxalyl-butyl)-amide]",–,14.5 µM,> 100 µM
"CCCC(NC(=O)[C@@H]1[C@H]2CCC(F)(F)[C@H]2CN1C(=O)[C@@H](NC(=O)OC(C)C)C(C)(C)C)C(=O)C(=O)N[C@@H](C)c1ccccc1 (stereo partly drawn) [((S)-1-{(1S,3aR,6aS)-4,4-Difluoro-1-[1-((S)-1-phenyl-ethylaminooxalyl)-butylcarbamoyl]-hexahydro-cyclopenta[c]pyrrole-2-carbonyl}-2,2-dimethyl-propyl)-carbamic acid isopropyl ester]",–,2.1 µM,> 100 µM

# The next compounds have a lower Ki [2] than those just listed; values first:
IC50 [1],Ki [2],SMILES,IC50 [3]
> 100 µM,1.8 µM,"CCCC(NC(=O)[C@@H]1[C@H]2CCC[C@H]2CN1C(=O)[C@@H](NC(=O)[C@H](O)C(C)C)C(C)C)C(=O)C(=O)Nc1ccccc1 (stereo partly drawn) [(1S,3aR,6aS)-2-[(S)-2-((R)-2-Hydroxy-3-methyl-butyrylamino)-3-methyl-butyryl]-octahydro-cyclopenta[c]pyrrole-1-carboxylic acid (1-phenylaminooxalyl-butyl)-amide]",–
–,0.82 µM,"CCCC(NC(=O)[C@@H]1[C@H]2CCC[C@H]2CN1C(=O)[C@@H](NC(=O)OC(C)C)C(C)(C)C)C(=O)C(=O)Nc1ccccc1 (stereo partly drawn) [{(S)-2,2-Dimethyl-1-[(1S,3aR,6aS)-1-(1-phenylaminooxalyl-butylcarbamoyl)-hexahydro-cyclopenta[c]pyrrole-2-carbonyl]-propyl}-carbamic acid isopropyl ester]",–
